Patent US20140377216A1, “ANTICANCER FUSION PROTEIN” (ADAMED SP. Z.O.O., priority 2011, published 2014)

Key:
Type in all cases: in vivo, Crl:SHO-PrkdcscidHrhr mice
[1] = test system: pancreatic carcinoma MIA PaCa-2; assay: Pancreas cancer model, Experiment B: MIA PaCa-2 xenograft; conditions: rhTRAIL 50 mg/kg i.v. six times every second day, 61th day
Description: (§1) Tumor size was measured using electronic calliper, tumor volume was calculated using the formula: (a^2×b)/2, where a=shorter diagonal of the tumor (mm) and b=longer diagonal of the tumor (mm). Inhibition of tumor growth was calculated using the formula:
(§2) TGI[%](Tumor growth inhibition)=(WT/WC)×100−100%
(§3) wherein WT is the average tumor volume in the treatment group, and WC is the average tumor volume in the control group.
On day 0 Crl:SHO-Prkdc^scidHr^hr mice were grafted subcutaneously (s.c.) in the right flank region with 5×10^6 of MIA PaCa-2 cells suspended in 0.1 ml of 3:1 mixture HBSS buffer:Matrigel using syringe with a 0.5×25 mm needle (Bogmark). When tumors reached the size of 60-398 mm^3 (day 20), mice were randomized to obtain the average size of tumors in the group of ˜170 mm^3 and assigned to treatment groups. The treatment groups were administered with the preparations of fusion protein of the invention of Ex. 16^b (50 mg/kg) and rhTRAIL114-281 (50 mg/kg) as a comparison and reference compound gemcytabine (Gemzar, Eli Lilly) (50 mg/kg). The preparations were administered intravenously (i.v.) six times every second day, gemcytabine was applied intraperitoneally (i.p.) in the same schedule. The control group received formulation buffer.
When a therapeutic group reached the average tumor size of ˜1000 mm^3, mice were sacrificed by the cervical dislocation.

[2] = test system: multidrug resistant human uterine sarcoma MES-SA/Dx5; assay: Multidrug resistant uterine sarcoma model: MES-SA/Dx5 xenograft; conditions: 10 mg/kg i.v. 6 times every second day, 35 day
Description: as §1, §2, §3
On day 0 Crl:SHO-Prkdc^scidHr^hr mice were grafted subcutaneously (s.c.) in the right side with 7×10^6 of MES-SA/Dx5 cells suspended in 0.1 ml of the mixture HBSS:Matrigel 10:1 using syringe with a needle 0.5×25 mm (Bogmark). On the 19 day of the experiment mice were randomized to obtain the average size of tumors in the group of −180 mm^3 and assigned to treatment groups. The treatment groups were administered with the preparation of fusion protein of the invention of Ex. 11^a (30 mg/kg) and rhTRAIL114-281 (10 mg/kg) as a comparison against formulation buffer (19 mM NaH2PO4, 81 mM Na2HPO4, 50 mM NaCl, 5 mM glutathione, 0.1 mM ZnCl2, 10% glycerol, pH 7.4) as a control. Preparations were administered intravenously (i.v.) 6 times once daily every second day. On the 35 day of the experiment mice were sacrificed by disruption of spinal cord.

human lung cancer A549 = assay: Lung cancer model, Experiment B: A549 xenograft; conditions: A549, Crl:SHO mice; 20 mg/kg i.v. 6 times every second day; 34 day
Description: as §1, §2, §3
Experiment B. On day 0 Crl:SHO-Prkdc^scidHr^h mice were grafted subcutaneously (s.c.) in the right side with 7×10^6 of A549 cells suspended in 0.1 ml of the mixture HBSS:Matrigel 3:1 using syringe with a needle 0.5×25 mm (Bogmark). On the 17 day of the experiment mice were randomized to obtain the average size of tumors in the group of ˜100-120 mm^3 and assigned to treatment groups. The treatment groups were administered with the preparations of fusion protein of the invention of Ex. 11^a (40 mg/kg), and rhTRAIL114-281 (20 mg/kg) as a comparison against formulation buffer (19 mM NaH2PO4, 81 mM Na2HPO4, 50 mM NaCl, 5 mM glutathione, 0.1 mM ZnCl2, 10% glycerol, pH 7.4) as a control. The preparations were administered intravenously (i.v) 6 times once daily every second day. On the 34 day of the experiment mice were sacrificed by disruption of the spinal cord.

[3] = test system: human liver cancer PLC/PRF/5; assay: Liver cancer model, Experiment B: PLC/PRF/5 xenograft; conditions: rhTRAIL 50 mg/kg i.v. six times every second day, 43th day
Description: as §1, §2, §3
On day 0 Crl:SHO-Prkdc^scidHr^hr mice were grafted subcutaneously (s.c.) in the right flank region with 7×10^6 of PLC/PRF/5 cells suspended in 0.1 ml of the 3:1 mixture HBSS buffer:Matrigel using syringe with a 0.5×25 mm needle (Bogmark). When tumors reached the size of 72-536 mm^3 (day 29), mice were randomized to obtain the average size of tumors in the group of ˜205 mm^3 and assigned to treatment groups. The treatment groups were administered with the preparations of fusion protein of the invention of Ex. 16^b (50 mg/kg) and rhTRAIL114-281 (50 mg/kg) as a comparison and reference compound 5-FU (5-Fluorouracil, Sigma-Aldrich) (30 mg/kg). The preparations were administered intravenously (i.v.) six times every second day, except 5-FU, which was applied intraperitoneally (i.p.) in the schedule (q1dx5)×2. The control group received formulation buffer.
When an experimental group reached the average tumor size of ˜1000 mm^3, mice were sacrificed by cervical dislocation.

human liver cancer HepG2 = assay: Liver cancer model, Experiment A: HepG2 xenograft; conditions: 50 mg/kg i.v. six times every second day, 42th day
Description: as §1, §2, §3
On day 0 Crl:SHO-Prkdc^scidHr^hr mice were grafted subcutaneously (s.c.) in the right flank region with 7×10^6 of HepG2 cells suspended in 0.1 ml of the 3:1 mixture HBSS buffer:Matrigel using syringe with a 0.5×25 mm needle (Bogmark). When tumors reached the size of 64-529 mm^3 (day 25), mice were randomized to obtain the average size of tumors in the group of −230 mm^3 and assigned to treatment groups. The treatment groups were administered with the preparations of fusion protein of the invention of Ex. 16^b (80 mg/kg) and rhTRAIL114-281 (50 mg/kg) as a comparison and reference compound 5-FU (5-Fluorouracil, Sigma-Aldrich) (20 mg/kg). The preparations were administered intravenously (i.v.) six times every second day, 5-FU was applied intraperitoneally (i.p.). The control group received formulation buffer.
When the therapeutic group reached the average tumor size of ˜1000 mm^3, mice were sacrificed by cervical dislocation.

rhTRAIL114-281: recombinant human soluble TRAIL, amino acids 114-281 of hTRAIL, used as comparative reference
TGI (tumor growth inhibition) relative to the control [1]: 68% | TGI (tumor growth inhibition) relative to the control [2]: 29% | TGI (tumor growth inhibition) relative to the control (human lung cancer A549): 21.8% | TGI (tumor growth inhibition) relative to the control [3]: 25.2% | TGI (tumor growth inhibition) relative to the control (human liver cancer HepG2): 23.2%
